Holding throughout (assay type): in vivo
Experiment [1] relates to Two-spotted spider mite (Tetranychus urticae), sensitive strain to hexythiazox, pyridaben and/or fenpyroximate. As to the kind of experiment: Example 1: two-spotted spider mite egg/larva efficacy on sprayed kidney bean leaves. The settings on record: 7 days after spray. The source says: (§1) The action to be expected E for a given active ingredient combination obeys the so-called COLBY formula and can be calculated as follows (COLBY, S.R. “Calculating synergistic and antagonistic responses of herbicide combination”. Weeds, Vol. 15, pages 20-22; 1967): • ppm=milligrams of active ingredient (=a.i.) per liter of spray mixture • X=% action by active ingredient A) using p ppm of active ingredient • Y=% action by active ingredient B) using q ppm of active ingredient.
(§2) According to COLBY, the expected (additive) action of active ingredients A)+B) using p+q ppm of active ingredient is
(§3) If the action actually observed (0) is greater than the expected action (E), then the action of the combination is super-additive, i.e. there is a synergistic effect.
(§4) Two-spotted spider mites (sensitive strain to hexythiazox, pyridaben and/or fenpyroximate) were allowed to oviposit on leaves of kidney beans for one day, and the female adults were then removed. The leaves were sprayed by a rotating application tower at 200 ml/m^2 of the predetermined concentration prepared from a product (e.g. the mixture according to the instant invention and the solo active ingredients). Seven days thereafter, the number of unhatched eggs and dead larvae was examined, whereby the live egg rate (%) was determined. The efficacy (observed %) against eggs and larvae is, therefore, calculated based on the following formula: […]

The test system of experiment [2] is Two-spotted spider mite (Tetranychus urticae), resistant strain to hexythiazox, pyridaben and/or fenpyroximate. As to the kind of experiment: Example 2: two-spotted spider mite, resistant strain, egg/larva efficacy.
Text: as §1, §2, §3, §4
The Example 2 is conducted with use of two-spotted spider mite (resistant strain to hexythiazox, pyridaben and/or fenpyroximate) in a manner similar to that of Example 1.

Experiment [3] has as its system Kanzawa spider mite (Tetranychus kanzawai), sensitive strain to hexythiazox, pyridaben and/or fenpyroximate. Put plainly: Example 3: kanzawa spider mite, sensitive strain, egg/larva efficacy.
Text: as §1, §2, §3, §4
The Example 3 is conducted with use of kanzawa spider mite (sensitive strain to hexythiazox, pyridaben and/or fenpyroximate) in a manner similar to that of Example 1.

The test system of experiment [4] is Kanzawa spider mite (Tetranychus kanzawai), resistant strain to hexythiazox, pyridaben and/or fenpyroximate. As to the kind of experiment: Example 4: kanzawa spider mite, resistant strain, egg/larva efficacy.
Text: as §1, §2, §3, §4
The Example 4 is conducted with use of kanzawa spider mite (resistant strain to hexythiazox, pyridaben and/or fenpyroximate) in a manner similar to that of Example 1.

The test system of experiment [5] is Two-spotted spider mite (Tetranychus urticae), sensitive strain to hexythiazox, pyridaben and/or fenpyroximate. As to the kind of experiment: Example 5: two-spotted spider mite, sensitive strain, egg/larva efficacy (other ratio).
Text: as §1, §2, §3, §4
The Example 5 is conducted with use of two-spotted spider mite (sensitive strain to hexythiazox, pyridaben and/or fenpyroximate) in a manner similar to that of Example 1.

Turning to `CCOc1cc(C(C)(C)C)ccc1C1COC(c2c(F)cccc2F)=N1` (centres unmarked) [Etoxazole, etoxazole], the “observed (%) efficacy against eggs and larvae” value (“observed (%) efficacy” for short) in experiment [1] (rate 0.16 ppm) was 40.6%; in experiment [1] (rate 0.31 ppm) it was 77.7%; in experiment [2] (rate 0.63 ppm), 9.3%; in experiment [2] (rate 1.25 ppm), 10.5%; in experiment [3] (rate 0.16 ppm), 13.6%; in experiment [3] (rate 0.31 ppm), 60.8%. Moreover, the “observed (%) efficacy” value was 19.4% in experiment [4] (rate 0.63 ppm), 70.1% in experiment [4] (rate 1.25 ppm), 0.0% in experiment [5] (rate 0.06 ppm) and 15.1% in experiment [5] (rate 0.13 ppm).

In the case of abamectin, the “observed (%) efficacy” value in experiment [1] (rate 0.06 ppm) came to 0.0%; in experiment [1] (rate 0.11 ppm), 9.4%; in experiment [2] (rate 0.23 ppm), 0.9%; in experiment [2] (rate 0.45 ppm), 6.4%; in experiment [3] (rate 0.06 ppm), 2.1%; in experiment [3] (rate 0.11 ppm) it was 1.3%. Besides, the “observed (%) efficacy” value was 6.3% in experiment [4] (rate 0.23 ppm), 43.6% in experiment [4] (rate 0.45 ppm), 8.7% in experiment [5] (rate 0.19 ppm) and 5.0% in experiment [5] (rate 0.38 ppm).

The values above are taken from US20130059730A1, “INSECTICIDAL COMBINATION” (Kyoyu Agri Company, Ltd., priority 2010, published 2013).
